Data taken from PubChem BioAssay (NCI).
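1) Cells in 96-well plates. 2) Compound, 48 h, 5 concentrations. 3) Linear interpolation between surrounding doses. 4) Unreached endpoint = highest concentration. TGI: concentration producing complete growth inhibition.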

Experiments:
Experiment in all cases: NCI tumour cell line growth inhibition, 48 h
CAKI-1 renal = tested on: CAKI-1 renal
NCI-H226 lung = tested on: NCI-H226 lung
U251 CNS = tested on: U251 CNS
SK-MEL-2 melanoma = tested on: SK-MEL-2 melanoma
M14 melanoma = tested on: M14 melanoma
SNB-19 CNS = tested on: SNB-19 CNS
LOX IMVI melanoma = tested on: LOX IMVI melanoma
OVCAR-3 ovarian = tested on: OVCAR-3 ovarian
DU-145 prostate = tested on: DU-145 prostate
RXF 393 renal = tested on: RXF 393 renal
ACHN renal = tested on: ACHN renal
SF-539 CNS = tested on: SF-539 CNS
T-47D breast = tested on: T-47D breast
CCRF-CEM leukemia = tested on: CCRF-CEM leukemia
OVCAR-4 ovarian = tested on: OVCAR-4 ovarian
RPMI-8226 leukemia = tested on: RPMI-8226 leukemia
K-562 leukemia = tested on: K-562 leukemia
HS 578T breast = tested on: HS 578T breast
HOP-62 NSCLC = tested on: HOP-62 NSCLC
MDA-MB-231 breast = tested on: MDA-MB-231 breast
BT-549 breast = tested on: BT-549 breast
SR leukemia = tested on: SR leukemia
MCF7 breast = tested on: MCF7 breast
HL-60(TB) leukemia = tested on: HL-60(TB) leukemia
NCI-H522 lung = tested on: NCI-H522 lung
MALME-3M melanoma = tested on: MALME-3M melanoma
786-0 renal = tested on: 786-0 renal
UACC-257 melanoma = tested on: UACC-257 melanoma
HT29 colon = tested on: HT29 colon
TK-10 renal = tested on: TK-10 renal
NCI-H23 lung = tested on: NCI-H23 lung
NCI/ADR-RES ovarian = tested on: NCI/ADR-RES ovarian
SF-295 CNS = tested on: SF-295 CNS
MDA-MB-435 = tested on: MDA-MB-435
UACC-62 melanoma = tested on: UACC-62 melanoma
OVCAR-5 ovarian = tested on: OVCAR-5 ovarian
OVCAR-8 ovarian = tested on: OVCAR-8 ovarian
SNB-75 CNS = tested on: SNB-75 CNS
SN12C renal = tested on: SN12C renal
KM12 colon = tested on: KM12 colon
A498 renal = tested on: A498 renal
PC-3 prostate = tested on: PC-3 prostate
SF-268 CNS = tested on: SF-268 CNS
SK-MEL-5 melanoma = tested on: SK-MEL-5 melanoma
MDA-N = tested on: MDA-N
MOLT-4 leukemia = tested on: MOLT-4 leukemia
SK-MEL-28 melanoma = tested on: SK-MEL-28 melanoma
SW-620 colon = tested on: SW-620 colon
HCT-15 colon = tested on: HCT-15 colon
EKVX NSCLC = tested on: EKVX NSCLC
HCT-116 colon = tested on: HCT-116 colon
IGROV1 ovarian = tested on: IGROV1 ovarian
NCI-H460 lung = tested on: NCI-H460 lung
SK-OV-3 ovarian = tested on: SK-OV-3 ovarian
A549 NSCLC = tested on: A549 NSCLC
HOP-92 NSCLC = tested on: HOP-92 NSCLC
UO-31 renal = tested on: UO-31 renal
HCC-2998 colon = tested on: HCC-2998 colon
COLO 205 colon = tested on: COLO 205 colon

## CN1CCc2c(sc3ncn(N)c(=N)c23)C1
CAKI-1 renal
  TGI: > 100 µM
NCI-H226 lung
  TGI: > 100 µM
U251 CNS
  TGI: > 100 µM
SK-MEL-2 melanoma
  TGI: > 100 µM
M14 melanoma
  TGI: > 100 µM
SNB-19 CNS
  TGI: > 100 µM
LOX IMVI melanoma
  TGI: > 100 µM
OVCAR-3 ovarian
  TGI: > 100 µM
DU-145 prostate
  TGI: > 100 µM
RXF 393 renal
  TGI: > 100 µM
ACHN renal
  TGI: > 100 µM
SF-539 CNS
  TGI: > 100 µM
T-47D breast
  TGI: > 100 µM
CCRF-CEM leukemia
  TGI: > 100 µM
OVCAR-4 ovarian
  TGI: > 100 µM
RPMI-8226 leukemia
  TGI: > 100 µM
K-562 leukemia
  TGI: > 100 µM
HS 578T breast
  TGI: > 100 µM
HOP-62 NSCLC
  TGI: > 100 µM
MDA-MB-231 breast
  TGI: > 100 µM
BT-549 breast
  TGI: > 100 µM
SR leukemia
  TGI: > 100 µM
MCF7 breast
  TGI: > 100 µM
HL-60(TB) leukemia
  TGI: > 100 µM
NCI-H522 lung
  TGI: > 100 µM
MALME-3M melanoma
  TGI: > 100 µM
786-0 renal
  TGI: > 100 µM
UACC-257 melanoma
  TGI: > 100 µM
HT29 colon
  TGI: > 100 µM
TK-10 renal
  TGI: > 100 µM
NCI-H23 lung
  TGI: > 100 µM
NCI/ADR-RES ovarian
  TGI: > 100 µM
SF-295 CNS
  TGI: > 100 µM
MDA-MB-435
  TGI: > 100 µM
UACC-62 melanoma
  TGI: > 100 µM
OVCAR-5 ovarian
  TGI: > 100 µM
OVCAR-8 ovarian
  TGI: > 100 µM
SNB-75 CNS
  TGI: > 100 µM
SN12C renal
  TGI: > 100 µM
KM12 colon
  TGI: > 100 µM
A498 renal
  TGI: > 100 µM
PC-3 prostate
  TGI: > 100 µM
SF-268 CNS
  TGI: > 100 µM
SK-MEL-5 melanoma
  TGI: > 100 µM
MDA-N
  TGI: > 100 µM
MOLT-4 leukemia
  TGI: > 100 µM
SK-MEL-28 melanoma
  TGI: > 100 µM
SW-620 colon
  TGI: > 100 µM
HCT-15 colon
  TGI: > 100 µM
EKVX NSCLC
  TGI: > 100 µM
HCT-116 colon
  TGI: > 100 µM
IGROV1 ovarian
  TGI: > 100 µM
NCI-H460 lung
  TGI: > 100 µM
SK-OV-3 ovarian
  TGI: > 100 µM
A549 NSCLC
  TGI: > 100 µM
HOP-92 NSCLC
  TGI: > 100 µM

## CN(C)CCNc1ccc2c(=O)n(CCN(C)C)c(=O)n3c4ccccc4c(=O)c1c23
CAKI-1 renal
  TGI: 2.05 µM
NCI-H226 lung
  TGI: 1.58 µM
U251 CNS
  TGI: 3.63 µM
SK-MEL-2 melanoma
  TGI: 1.7 µM
M14 melanoma
  TGI: 1.81 µM
SNB-19 CNS
  TGI: 7.12 µM
LOX IMVI melanoma
  TGI: 1.48 µM
OVCAR-3 ovarian
  TGI: 2.81 µM
DU-145 prostate
  TGI: 0.179 µM
RXF 393 renal
  TGI: 0.688 µM
SF-539 CNS
  TGI: 0.272 µM
T-47D breast
  TGI: 3.89 µM
RPMI-8226 leukemia
  TGI: 0.0616 µM
HS 578T breast
  TGI: 3.65 µM
UO-31 renal
  TGI: 1.8 µM
HOP-62 NSCLC
  TGI: 0.265 µM
MDA-MB-231 breast
  TGI: 0.682 µM
BT-549 breast
  TGI: 5.7 µM
SR leukemia
  TGI: 0.0298 µM
MCF7 breast
  TGI: 1.78 µM
HL-60(TB) leukemia
  TGI: 0.286 µM
NCI-H522 lung
  TGI: 0.58 µM
MALME-3M melanoma
  TGI: 1.93 µM
786-0 renal
  TGI: 1.35 µM
UACC-257 melanoma
  TGI: 1.62 µM
HT29 colon
  TGI: 1.68 µM
TK-10 renal
  TGI: 4.31 µM
NCI-H23 lung
  TGI: 0.565 µM
NCI/ADR-RES ovarian
  TGI: 5.5 µM
SF-295 CNS
  TGI: 0.516 µM
MDA-MB-435
  TGI: 0.537 µM
OVCAR-5 ovarian
  TGI: 5.03 µM
OVCAR-8 ovarian
  TGI: 8.78 µM
HCC-2998 colon
  TGI: 0.473 µM
SNB-75 CNS
  TGI: 0.403 µM
SN12C renal
  TGI: 0.294 µM
KM12 colon
  TGI: 1.14 µM
A498 renal
  TGI: 0.554 µM
PC-3 prostate
  TGI: 7.09 µM
SF-268 CNS
  TGI: 0.482 µM
SK-MEL-5 melanoma
  TGI: 0.163 µM
MDA-N
  TGI: 0.71 µM
MOLT-4 leukemia
  TGI: < 0.0201 µM
SK-MEL-28 melanoma
  TGI: 5.26 µM
SW-620 colon
  TGI: 3.98 µM
EKVX NSCLC
  TGI: 2.56 µM
HCT-116 colon
  TGI: 0.615 µM
IGROV1 ovarian
  TGI: 0.982 µM
NCI-H460 lung
  TGI: 0.364 µM
SK-OV-3 ovarian
  TGI: 6.2 µM
COLO 205 colon
  TGI: 0.671 µM
A549 NSCLC
  TGI: > 40.3 µM
HOP-92 NSCLC
  TGI: 0.462 µM

## Nc1cc2c(nc3c4ccccc4c(N)cc3[n+]2-c2cccc3ccccc23)c2ccccc12 (tested in a mixture with another compound)
CAKI-1 renal
  TGI: 14.6 µM
NCI-H226 lung
  TGI: 28.7 µM
U251 CNS
  TGI: 2.61 µM
SK-MEL-2 melanoma
  TGI: 4.28 µM
M14 melanoma
  TGI: 6.61 µM
SNB-19 CNS
  TGI: 20.2 µM
LOX IMVI melanoma
  TGI: 7.3 µM
OVCAR-3 ovarian
  TGI: 4.56 µM
DU-145 prostate
  TGI: 15.1 µM
RXF 393 renal
  TGI: 9.33 µM
ACHN renal
  TGI: 9.21 µM
SF-539 CNS
  TGI: 23.8 µM
T-47D breast
  TGI: 16.1 µM
CCRF-CEM leukemia
  TGI: 1.31 µM
OVCAR-4 ovarian
  TGI: 15.2 µM
RPMI-8226 leukemia
  TGI: 0.851 µM
K-562 leukemia
  TGI: 4.17 µM
HS 578T breast
  TGI: 12 µM
UO-31 renal
  TGI: 15.2 µM
HOP-62 NSCLC
  TGI: 17.2 µM
MDA-MB-231 breast
  TGI: 2.72 µM
BT-549 breast
  TGI: 16.3 µM
SR leukemia
  TGI: 3.56 µM
MCF7 breast
  TGI: 3.79 µM
HL-60(TB) leukemia
  TGI: 4.53 µM
NCI-H522 lung
  TGI: 7.77 µM
MALME-3M melanoma
  TGI: 4.14 µM
786-0 renal
  TGI: 4.22 µM
UACC-257 melanoma
  TGI: 3.51 µM
HT29 colon
  TGI: 10.9 µM
TK-10 renal
  TGI: 4.55 µM
NCI-H23 lung
  TGI: 4.05 µM
NCI/ADR-RES ovarian
  TGI: 22.2 µM
SF-295 CNS
  TGI: 12.4 µM
MDA-MB-435
  TGI: 3 µM
UACC-62 melanoma
  TGI: 21.7 µM
OVCAR-5 ovarian
  TGI: 25.2 µM
OVCAR-8 ovarian
  TGI: 12.8 µM
SNB-75 CNS
  TGI: 10.6 µM
SN12C renal
  TGI: 13.8 µM
KM12 colon
  TGI: 9.87 µM
A498 renal
  TGI: 16.9 µM
PC-3 prostate
  TGI: 2.9 µM
SF-268 CNS
  TGI: 18.3 µM
SK-MEL-5 melanoma
  TGI: 6.17 µM
MDA-N
  TGI: 5.27 µM
MOLT-4 leukemia
  TGI: 4.04 µM
SK-MEL-28 melanoma
  TGI: 20 µM
SW-620 colon
  TGI: 9.18 µM
HCT-15 colon
  TGI: 25.9 µM
EKVX NSCLC
  TGI: 18.6 µM
HCT-116 colon
  TGI: 10.7 µM
IGROV1 ovarian
  TGI: 10.7 µM
NCI-H460 lung
  TGI: 1.58 µM
SK-OV-3 ovarian
  TGI: 17.9 µM
COLO 205 colon
  TGI: 7.14 µM
A549 NSCLC
  TGI: 13.3 µM
HOP-92 NSCLC
  TGI: 8.45 µM
